Data on one compound can be found in US20030170643A1, “Regulation of apoB treatment and drug screening for cardiovascular and metabolic disorders or syndromes” (priority 1999, published 2003).

Molecules are shown by their SMILES.

The test system of the experiment is rat primary hepatocytes. In words: Secretion of newly synthesized ([35S]methionine-labeled) VLDL-apoproteins by rat primary hepatocytes incubated with fatty acid/BSA complexes. The experiment is classed as cell-based. The note with it: fatty acid/BSA complexes (0.8 mM FA), VLDL fraction. As for the experimental part:
Cells were plated at a density of 2×10^6 cells/ml on 60-mm culture dishes (previously coated with poly-D-lysine) in modified M199 medium (M199, 1% fetal bovine serum [FBS], 1 mM nicotinamide, 0.1 nM insulin, 3 mg/ml choline, 1.1% L-glutamine, 1% BSA). After a four-hour attachment period, the medium was changed (modified M199 identical to the above except BSA was omitted and the concentration of FBS was raised to 10%). The next morning, cells were washed in serum-free medium three times, the experimental media added, and the cells incubated at 37° C. for 4-6 hours. The experimental medium consisted of serum-free RPMI containing the appropriate isotopes (see below) and fatty acids (FA) present at a final concentration of 0.8 mM complexed to BSA (FA:BSA molar ratio=5:1). The fatty acids used were oleic (OA), EPA, and DHA. Control medium was identical, except that BSA (0.16 mM) without fatty acids was present. For metabolic labeling of proteins, [^35S]methionine (70 uCi/ml) was included in the experimental media.
Following the 4-6 hour incubation period, the cell monolayer was washed, then solubilized in 0.1 M NaOH, and the cell protein determined by the Lowry method (Lowry, O. H., Rosebrough, N. J., Farr, A. L., and Randall, R. J. (1951) J Biol Chem 193, 265-75). Each 60 mm dish contained approximately 1-1.5 mg of cell protein. The secreted apoproteins were isolated from the medium either by ultracentrifugation or immunoprecipitation. To isolate the d<1.006 (VLDL) and 1.006<d<1.063 (IDL and LDL) g/ml density classes by centrifugation, sequential 20 hour runs at 48,000 rpm in a 50 Ti Beckman rotor at 4° C. were performed. After the first run at d=1.006, the upper VLDL layer was harvested and the density of the infranatant adjusted to 1.066 g/ml with solid KBr. After being overlaid with a KBr solution of density 1.063, the adjusted infranatant was re-centrifuged as before to isolate the IDL and LDL fractions. In some experiments, the HDL fraction (1.063<d<1.21) was isolated by sequential density centrifugation. Lipoprotein fractions were then dialyzed against 0.9% NaCl containing 10 mM unlabeled methionine, 0.2 mM PMSF, and 2 mM EDTA. Dialyzed lipoproteins were delipidated using 9 volumes of 100% isopropanol. Apoproteins were then collected by centrifugation in a Sorval HB-4 rotor at 10,000 rpm and 4° C. for 20 min, and dissolved in buffer (0.01 M phosphate, pH 7,1 % SDS, 10% glycerol), in preparation for electrophoresis.
To immunoprecipitate apoB or apoE from unfractionated conditioned medium, monospecific rabbit antiserum to rat apoB or apoE was used. Briefly, an aliquot of the medium was mixed with an equal volume of diluted antiserum (1:100 in PBS and 1% BSA) and incubated overnight at 4° C. Staph A was added in the form of immunoprecipitin, and the resultant precipitate containing the immune complexes was washed extensively, the staph A cells removed, and the isolated apoprotein dissolved in gel sample buffer (0.0625M tris/Cl, pH 6.8, 20% glycerol, 2% SDS). Electrophoretic separation of apoVLDL, apoIDL/LDL, and immunoprecipitates was accomplished using 3.5% acrylamide-18% glycerol gels as described (Maguire, G. F., Lee, M., and Connelly, P. W. (1989) J Lipid Res 30, 757-61). An aliquot of each sample was taken for scintillation counting, so that total radioactivity applied to each lane could be determined. Also, protein size standards were included in each gel.
After electrophoresis, the gels were stained, fixed, soaked in Enhance fluor solution, and dried following protocols supplied by the manufacturer. Dried gels were then exposed to X-ray film at −70° C. and signals on the resulting fluorograms were typically quantified by densitometry or phosphorimaging. Using the total radioactivity applied to each lane of the gel and the relative signal intensity of each band in that lane, the radioactivity associated with each apoprotein species was calculated. […]

For `CCCCCCCC/C=C\CCCCCCCC(=O)O` [OA, oleic acid], the “secretion of newly synthesized VLDL-ApoB48, percentage of secretion observed with BSA alone” value came to 132 ± 11 percentage; the “secretion of newly synthesized VLDL-ApoB100, percentage of secretion observed with BSA alone” value came to 96 ± 4 percentage; the “secretion of newly synthesized VLDL-ApoE, percentage of secretion observed with BSA alone” value was 84 ± 3 percentage.
